Results from patent US5403930A, “Substituted salicylic acids” (Pharmacia AB, priority 1991, dated 1995).

Columns and labels:
human lymphocytes = assay: Concanavalin A-induced proliferation of human lymphocytes ([3H]-thymidine); type: cell-based; conditions: Lymphocyte, 72 h, 250 μM test compound, 2.5 μg/ml Concanavalin A, 3 days, 2 experiments
Experimental: Effect of Compounds on Human Lymphocyte Proliferation Peripheral blood mononuclear cells were isolated from heparinized blood from healthy volunteers by density gradient centrifugation as described by Bain and Pshyk, Transplantation Proc, 4:163-164 (1972). Cell proliferation induced by Concanavalin A was measured in a standard assay such as described in Soderstrom et at., Scand J Immunol, 32:503-516 (1990) using 5% fetal bovine serum in the culture medium. The reaction mixture (final concentrations) consisted of 200 000 cells stimulated with 2.5 μg/ml Concanavalin A and test compounds in a total volume of 0.2 ml. The test compounds were added at the start of the assay, which was run for a total of three days with addition ofradioactive [3H]-thymidine during the last 18 h. Cell bound radioactivity was measured in a liquid scintillation counter.

Human Granulocytes = assay: FMLP-induced superoxide production of human granulocytes, 10 μM test compound; type: cell-based; conditions: 10 nM FMLP, 400 000 granulocytes
Experimental: Effects of Test Compounds on Superoxide Production of Human Granulocytes
Granulocytes were isolated from the heparinized blood from healthy volunteers. The superoxide assay was essentially that of J. M. McCord and I Fridovich (J. Biol. Chem. 244:6049-6055 (1969)) as modified by G Carlin et al. (Pharmacol. Toxicol 65:121-127 (1989)). The reaction mixture contained (final concentrations) 125 μM cytochrome C in Dulbeccos phosphate buffer with Mg and Ca, 10 μM test compound and 400 000 granulocytes treated with 5 μg/ml of cytochalasin B immediately before the experiment. This reaction mixture was preincubated at 37° C. for 10 minutes, whereafter 10 nM N-formyl-L-methionyl-L-leucyl-L-phenylalanine was added to start the reaction, making the final volume 1 ml. After 10 minutes the tubes were centrifuged and the absorbance of the supernatant at 540 and 550 nm was measured. The superoxide production was expressed as the difference in absorbance at these wavelengths.

O=C(O)c1cc(C#Cc2ccc(S(=O)(=O)Nc3ccccn3)cc2)ccc1O [Example 1, 2-Hydroxy-5-[[4-[(2-pyridinylamino)sulfonyl]phenyl]ethynyl]benzoic acid]
inhibition at 250 µM (human lymphocytes): 95.6% | inhibition at 10 µM (Human Granulocytes): 71%

O=C(O)c1cc(C=Cc2ccc(S(=O)(=O)Nc3ccccn3)cc2)ccc1O [Example 3, 2-Hydroxy-5-[2-[4-[(2-pyridinylamino)sulfonyl]phenyl]ethenyl]benzoic acid]
inhibition at 250 µM (human lymphocytes): 73.6% | inhibition at 10 µM (Human Granulocytes): 55.7%

Cc1cccnc1NS(=O)(=O)c1ccc(C=Cc2ccc(O)c(C(=O)O)c2)cc1 [Example 4, 2-Hydroxy-5-[2-[4-[(3-methyl-2-pyridinylamino)sulfonyl]phenyl]ethenyl]benzoic acid]
inhibition at 250 µM (human lymphocytes): 92.3% | inhibition at 10 µM (Human Granulocytes): 76.9%

CC(C)COC(=O)c1cc(C=Cc2ccc(S(=O)(=O)Nc3ccccn3)cc2)ccc1O [Example 5, Isobutyl 2-hydroxy-5-[2-[4-[(2-pyridinylamino)sulfonyl]phenyl]ethenyl]benzoate]
inhibition at 10 µM (Human Granulocytes): 25.8%

Cc1ccc(NS(=O)(=O)c2ccc(C=Cc3ccc(O)c(C(=O)O)c3)cc2)nc1 [Example 15, 2-Hydroxy-5-[2-[4-[(5-methyl-2-pyridinylamino)sulfonyl]phenyl]ethenyl]benzoic acid]
inhibition at 250 µM (human lymphocytes): 93.9%

Cc1cc(NS(=O)(=O)c2ccc(C=Cc3ccc(O)c(C(=O)O)c3)cc2)no1 [Example 18, 2-Hydroxy-5-[2-[4-[(5-methyl-3-isoxazolyl)aminosulfonyl]phenyl]ethenyl]benzoic acid]
inhibition at 250 µM (human lymphocytes): 43.8% | inhibition at 10 µM (Human Granulocytes): 44.2%

Cc1ccnc(NS(=O)(=O)c2ccc(C=Cc3ccc(O)c(C(=O)O)c3)cc2)n1 [Example 19, 2-Hydroxy-5-[2-[4-[(4-methyl-2-pyrimidyl)amino-sulfonyl]phenyl]ethenyl]benzoic acid ethanol solvate (2:1)]
inhibition at 250 µM (human lymphocytes): 10.3% | inhibition at 10 µM (Human Granulocytes): 65.9%

O=C(O)c1cc(C=Cc2ccc(S(=O)(=O)Nc3cnccn3)cc2)ccc1O [Example 20, 2-Hydroxy-5-[2-[4-[(2-pyrazinyl)aminosulfonyl]phenyl]ethenyl]benzoic acid]
inhibition at 250 µM (human lymphocytes): 34.8% | inhibition at 10 µM (Human Granulocytes): 35.1%

Cc1ccnc(NS(=O)(=O)c2ccc(C=Cc3ccc(O)c(C(=O)O)c3)cc2)c1 [Example 25, 2-Hydroxy-5-[2-[4-[(4-methyl-2-pyridinylamino)sulfonyl]phenyl]-ethenyl]benzoic acid ethanol solvate (2:1)]
inhibition at 10 µM (Human Granulocytes): 45.5%

O=C(O)c1cc(CCc2ccc(S(=O)(=O)Nc3ccccn3)cc2)ccc1O [Example 26, 2-Hydroxy-5-[2-[4-[(2-pyridinylamino)sulfonyl]phenyl]ethyl]benzoic acid]
inhibition at 250 µM (human lymphocytes): 16% | inhibition at 10 µM (Human Granulocytes): 26.8%

Cc1cccnc1NS(=O)(=O)c1ccc(CC(=O)c2ccc(O)c(C(=O)O)c2)cc1 [Example 27, 2-Hydroxy-5-[[4-[(3-methyl-2-pyridinylamino)sulfonyl]phenyl]acetyl]benzoic acid]
inhibition at 250 µM (human lymphocytes): 37.3% | inhibition at 10 µM (Human Granulocytes): 32.7%

O=C(Cc1ccc(S(=O)(=O)Nc2ccccn2)cc1)c1ccc(O)c(C(=O)O)c1 [Example 28]
inhibition at 250 µM (human lymphocytes): 15% | inhibition at 10 µM (Human Granulocytes): 17.9%

O=C(O)c1cc(C#Cc2ccc(S(=O)(=O)Nc3ncccc3OCc3ccccc3)cc2)ccc1O [Example 31, 2-Hydroxy-5-[[4-[[3-(phenylmethoxy)-2-pyridinylamino]sulfonyl]phenyl]ethynyl]benzoic acid]
inhibition at 250 µM (human lymphocytes): 100%

O=C(O)c1cc(C#Cc2ccc(S(=O)(=O)Nc3ccc(Cl)cn3)cc2)ccc1O [Example 32, 5-[[4-[(5-Chloro-2-pyridinylamino)sulfonyl]phenyl]ethynyl]-2hydroxybenzoic acid]
inhibition at 250 µM (human lymphocytes): 100%

O=C(O)c1cc(C#Cc2ccc(S(=O)(=O)Nc3nc4ccc(F)cc4s3)cc2)ccc1O [Example 34]
inhibition at 250 µM (human lymphocytes): 98%

CN(c1ccccn1)S(=O)(=O)c1ccc(C#Cc2ccc(O)c(C(=O)O)c2)cc1 [Example 35, 2-Hydroxy-5-[[4-[N-methyl-(2-pyridinyl)aminosulfonyl]phenyl]ethynyl]benzoicacid]
inhibition at 250 µM (human lymphocytes): 99%
